Legend:
Eimeria tenella = test: Inhibitory activity against coccidiosis in chicks orally inoculated with Eimeria tenella oocysts; type: in vivo, chicks (domestic fowls) infected with Eimeria tenella; parameters: key to Presence of hemaferia: -: Not existing; ±: Something like hemaferia is likely to exist; +: A little hemaferia exists; ++: Distinct hemaferiae exist in places; +++: Distinct hemaferiae exist almost over the whole; ++++: The whole are hemaferiae
Protocol: Inhibitory activity of tunicamine derivative C against coccidiosis was tested in the following manner. Primary chicks newly-hatched out were raised with a standard assorted feed for chicks containing no tunicamine derivative C for the first 7 days and on and after the 8th day with the same feed as above but containing a 100 ppm or 200 ppm concentration of tunicamine derivative C. On the 8th day from the hatch the body weight of the chicks was taken and they were divided into test groups of five chicks per group so as to balance the weight distribution for respective groups. On the 9th day, each chick was orally inoculated with 5.0×10^4 matured oocysts of Eimeria tenella. Assessment was made by observation and determination of the presence of […] on the 4, 5, 6, 7 and 8 from day inoculation; percent of survivals on the 8th day and the extend of symptoms on the 8th day from the inoculation were then evaluated.

[1] = system: Newcastle disease virus (NDV), influenza virus and tobacco-mosaic virus; conditions: cited from earlier work
[2] = system: genera Bacillus, Candida, Microbacterium; conditions: cited from earlier work
[3] = 100 ppm in feed, 8th day from inoculation
[4] = 200 ppm in feed, 8th day from inoculation

Compound | Relative increase in body weight (Eimeria tenella; 100 ppm in feed) [%] | Presence of hemaferia (Eimeria tenella; 100 ppm in feed, 4th day from inoculation) | Presence of hemaferia (Eimeria tenella; 100 ppm in feed, 5th day from inoculation) | Presence of hemaferia (Eimeria tenella; 100 ppm in feed, 6th day from inoculation) | Presence of hemaferia (Eimeria tenella; 100 ppm in feed, 7th day from inoculation) | Percent of survivals (Eimeria tenella; [3]) [%] | Presence of hemaferia (Eimeria tenella; [3]) | Relative increase in body weight (Eimeria tenella; 200 ppm in feed) [%] | Presence of hemaferia (Eimeria tenella; 200 ppm in feed, 4th day from inoculation) | Presence of hemaferia (Eimeria tenella; 200 ppm in feed, 5th day from inoculation) | Presence of hemaferia (Eimeria tenella; 200 ppm in feed, 6th day from inoculation) | Presence of hemaferia (Eimeria tenella; 200 ppm in feed, 7th day from inoculation) | Percent of survivals (Eimeria tenella; [4]) [%] | Presence of hemaferia (Eimeria tenella; [4]) | antiviral activity [1] | antibacterial activity [2]
NC1C(O)OC(CC(O)C2OC(n3ccc(=O)[nH]c3=O)C(O)C2O)C(O)C1O (stereo not shown) [tunicamine derivative C] | 96 | - | - | ± | ± | 100 | + | 102 | - | - | - | - | 100 | - |  | 
tunicamycin |  |  |  |  |  |  |  |  |  |  |  |  |  |  | high | high
